Measured values reported in the supplement of paper PMC10307832.

Legend:
Assay in all cases: relative viability (nuclei count vs DMSO), 5 days (fraction); higher = more cells survive
BX 795 + Dasatinib = compound: O=C(NCCCNc1nc(Nc2cccc(NC(=O)N3CCCC3)c2)ncc1I)c1cccs1 [BX 795] + Cc1nc(Nc2ncc(C(=O)Nc3c(C)cccc3Cl)s2)cc(N2CCN(CCO)CC2)n1 [Dasatinib] (partner 0.075 µM)
Outline: (§1)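 Lung cancer cell lines, seeded in 1536-well plates, were treated the following day by pin tool with a single drug or with five library-drug doses (not always all listed) in √10 steps on top of a fixed anchor-drug dose. Cells were fixed and nuclei stained in one step after 5 days, and nuclei were counted. Relative viability is the nuclei count for treated wells divided by that for vehicle wells, reported as medians of duplicate plates.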

BX 795 + OSI-027 = compound: O=C(NCCCNc1nc(Nc2cccc(NC(=O)N3CCCC3)c2)ncc1I)c1cccs1 [BX 795] + COc1cccc2cc(-c3nc([C@H]4CC[C@H](C(=O)O)CC4)n4ncnc(N)c34)[nH]c12 [OSI-027] (partner 0.5 µM)
Outline: as §1

BX 795 + AZD7762 = compound: O=C(NCCCNc1nc(Nc2cccc(NC(=O)N3CCCC3)c2)ncc1I)c1cccs1 [BX 795] + NC(=O)Nc1cc(-c2cccc(F)c2)sc1C(=O)N[C@H]1CCCNC1 [AZD7762] (partner 0.2 µM)
Outline: as §1

BX 795 + Linsitinib = compound: O=C(NCCCNc1nc(Nc2cccc(NC(=O)N3CCCC3)c2)ncc1I)c1cccs1 [BX 795] + C[C@]1(O)C[C@@H](c2nc(-c3ccc4ccc(-c5ccccc5)nc4c3)c3c(N)nccn32)C1 [Linsitinib] (partner 1 µM)
Outline: as §1

BX 795 + Lapatinib = compound: O=C(NCCCNc1nc(Nc2cccc(NC(=O)N3CCCC3)c2)ncc1I)c1cccs1 [BX 795] + CS(=O)(=O)CCNCc1ccc(-c2ccc3ncnc(Nc4ccc(OCc5cccc(F)c5)c(Cl)c4)c3c2)o1 [Lapatinib] (partner 2 µM)
Outline: as §1

Row | Cell Line | relative viability (BX 795 + Dasatinib; first compound 0.04 µM) | relative viability (BX 795 + Dasatinib; first compound 0.1265 µM) | relative viability (BX 795 + Dasatinib; first compound 0.4 µM) | relative viability (BX 795 + Dasatinib; first compound 1.265 µM) | relative viability (BX 795 + OSI-027; first compound 0.04 µM) | relative viability (BX 795 + OSI-027; first compound 0.1265 µM) | relative viability (BX 795 + OSI-027; first compound 0.4 µM) | relative viability (BX 795 + OSI-027; first compound 1.265 µM) | relative viability (BX 795 + AZD7762; first compound 0.04 µM) | relative viability (BX 795 + AZD7762; first compound 0.1265 µM) | relative viability (BX 795 + AZD7762; first compound 0.4 µM) | relative viability (BX 795 + AZD7762; first compound 1.265 µM) | relative viability (BX 795 + Linsitinib; first compound 0.04 µM) | relative viability (BX 795 + Linsitinib; first compound 0.1265 µM) | relative viability (BX 795 + Linsitinib; first compound 0.4 µM) | relative viability (BX 795 + Linsitinib; first compound 1.265 µM) | relative viability (BX 795 + Lapatinib; first compound 0.04 µM) | relative viability (BX 795 + Lapatinib; first compound 0.1265 µM) | relative viability (BX 795 + Lapatinib; first compound 0.4 µM) | relative viability (BX 795 + Lapatinib; first compound 1.265 µM)
1 | LXF-289 | 0.209 | 0.28 | 0.185 | 0.15 | 0.793 | 0.898 | 0.959 | 0.681 | 1.07 | 1.14 | 0.995 | 1.06 | 0.969 | 0.949 | 1.03 | 0.678 | 0.867 | 0.896 | 0.904 | 0.843
2 | NCI-H2347 | 0.385 | 0.325 | 0.293 | 0.283 | 0.503 | 0.541 | 0.616 | 0.352 | 0.806 | 0.838 | 0.677 | 0.578 | 1.09 | 0.962 | 1.17 | 0.942 | 0.945 | 0.903 | 1.16 | 0.914
3 | ABC-1 | 0.522 | 0.618 | 0.557 | 0.546 | 0.577 | 0.512 | 0.459 | 0.33 | 0.83 | 0.924 | 0.745 | 0.838 | 0.849 | 0.914 | 0.765 | 0.549 | 1.17 | 1.58 | 1.14 | 0.917
4 | NCI-H1792 | 0.792 | 0.764 | 0.821 | 0.664 | 0.765 | 0.728 | 0.702 | 0.53 | 0.616 | – | 0.696 | 0.576 | 0.559 | 0.673 | 0.461 | 0.424 | 0.872 | 0.903 | 0.981 | 0.842
5 | NCI-H647 | 0.19 | 0.196 | 0.151 | 0.0897 | 0.723 | 0.826 | 0.581 | 0.584 | 0.554 | 0.493 | 0.43 | 0.363 | 1.25 | 1.16 | 1.28 | 0.601 | 1.08 | 1.21 | 0.941 | 0.362
6 | NCI-H2126 | 0.649 | 0.658 | 0.507 | 0.599 | 0.837 | 0.677 | 0.818 | 0.699 | 1.02 | 1.01 | 1.01 | 0.983 | 0.714 | 0.656 | 0.757 | 0.701 | 0.728 | 0.752 | 0.837 | 0.767
7 | LOU-NH91 | 0.63 | 0.662 | 0.583 | 0.564 | 0.794 | 0.75 | 0.735 | 0.724 | 0.757 | 0.765 | 0.71 | 0.722 | 0.925 | 0.956 | 0.802 | 0.94 | 0.698 | 0.744 | 0.708 | 0.715
8 | NCI-H1755 | 0.432 | 0.468 | 0.465 | 0.353 | 0.711 | 0.74 | 0.794 | 0.552 | 0.465 | 0.467 | 0.374 | 0.386 | 1.04 | 0.93 | 1.01 | 0.689 | 1.03 | 1.05 | 0.999 | 0.861
9 | NCI-H1651 | 0.38 | 0.426 | 0.43 | 0.347 | 0.588 | 0.716 | 0.576 | 0.765 | 0.469 | 0.457 | 0.463 | 0.511 | 0.999 | 1.1 | 1.02 | 0.831 | 0.756 | 0.801 | 0.764 | 0.64
10 | CAL-12T | 0.521 | 0.387 | 0.281 | 0.129 | 0.726 | 0.834 | 0.669 | 0.186 | 0.555 | 0.617 | 0.609 | 0.584 | 0.833 | 0.901 | 0.723 | 0.374 | 0.738 | 0.624 | 0.608 | 0.29
11 | NCI-H460 | 0.491 | 0.474 | 0.385 | 0.385 | 0.633 | 0.561 | 0.543 | 0.224 | 0.587 | 0.616 | 0.664 | 0.767 | 0.708 | 1.01 | 0.605 | 0.281 | 0.952 | 1.62 | 0.892 | 0.729
12 | NCI-H2087 | 0.895 | 0.814 | 0.79 | 0.619 | 0.793 | 0.82 | 0.848 | 0.502 | 1.26 | 1.33 | 1.32 | 1.13 | 1.1 | 0.924 | 1.06 | 0.647 | 1.24 | 1.05 | 1.08 | 0.975
13 | NCI-H838 | 0.29 | 0.367 | 0.261 | 0.231 | 0.386 | 0.338 | 0.379 | 0.303 | 0.94 | 0.981 | 0.786 | 0.824 | 0.936 | 0.986 | 0.881 | 0.331 | 0.87 | 0.943 | 0.736 | 0.424
14 | NCI-H23 | 0.871 | 0.8 | 0.507 | 0.884 | 0.6 | 0.701 | 0.621 | 0.506 | 0.38 | 0.231 | 0.237 | 0.345 | 0.584 | 0.655 | 0.441 | 0.387 | 1.24 | 1.26 | 0.812 | 0.884
15 | NCI-H1915 | 0.323 | 0.285 | 0.306 | 0.29 | 0.7 | 0.6 | 0.663 | 0.469 | 0.651 | 0.658 | 0.666 | 0.695 | 1.16 | 1.09 | 1.08 | 1.02 | 0.947 | 0.951 | 0.947 | 0.827
